Measured values as given in patent US9045401B2, “Methods for treating or ameliorating a melanoma and killing melanoma cells” (THE REGENTS OF THE UNIVERSITY OF CALIFORNIA, priority 2007, dated 2015).
“Also recorded” adds a separate entry of the source. Read-outs that look alike come from different tables or passages of the source.

What was measured:
[1] = solubility in aqueous media; type: physicochemical
[2] = test system: A549 cells; test: confocal microscopy of ceramide and caspase 8; type: cell-based, human
Experimental: Confocal microscopy. […] After treatment, the cells were fixed 10 minutes at room temperature with 4% PFA, washed twice with PBS, permeabilized 2 minutes at room temperature with 0.1% triton in PBS and blocked for 30 minutes with sterile 2% BSA in PBS. The staining was performed at room temperature for 2 hours (h), with mouse monoclonal anti-human ceramide (Alexis) and rabbit anti-human caspase 8 (BD Pharmingen) antibodies followed by secondary goat anti-mouse ALEXA FLUOR568™ and goat anti-rabbit ALEXA FLUOR488™ antibodies (Invitrogen). The blue DNA binding dye TOPRO-3™ (Molecular Probes) was added together with the secondary antibodies. The cells were washed three times with PBS between the different incubation steps and the incubation with the secondary fluorescently labeled antibodies was performed in the dark. All antibodies were diluted in PBS. Confocal images were recorded on a Nikon ECLIPSE C1™ confocal microscope.

[3] = test system: A-549 lung cancer cells; test: XTT cell proliferation / viability assay; type: cell-based, human; conditions: for IC50: Homo sapiens
Experimental: (§1) Cell lines. Cells and cell lines were maintained in either DMEM or RPMI supplemented with 10% FCS. The caspase-deficient NB7 neuroblastoma cells have been previously described (33). C8-deficient and reconstituted jurkat cells were provided by Dr. Steve Hedrick (UCSD). Silencing of Caspase-8 gene expression in the A549 cells was performed through the use of delivering shRNA in a lentiviral format. Briefly 293 T cells were transfected with caspase-8, (Open Biosystems) or scrambled (Addgene) shRNAs in pLK0.1 lentiviral vector, together with lentiviral packaging plasmids (PMLDL, VSV-G and RSV-REV) using fugene6. The ratio of target ShRNAs and packaging plasmids was ShRNA/PMLDL/VSV-G/RSV-REV, 10/10/6/4 μg. Lentiviral supernatants from 293 T cells were harvested after 48 hours and used to infect A549 cells. Viral constructs were incubated for 24 h with A549 cell lines prior to replacing media with selective media containing puromycin (1 μg/ml). The suppression of caspase-8 was verified by western blot.
(§2) Cytotoxicity Assay. Cytotoxicity of ScA was assessed using the XTT cell proliferation assay. Briefly cells were plated on 96 well plates (5,000 per well) and incubated over night at 37° C. to allow for attachment and spreading. After 24 h, ScA was added from a DMSO stock, previously frozen at −80C as added directly from serial dilutions in DMSO at concentrations ranging from 100 uM to 100 fM. After 72 h, XTT (Aldrich Chemicals) was added to a final concentration of 250 ug/well. The plates were then incubated under standard tissue culture conditions until the control wells (DMSO) reached an OD value between 1.0-1.5. as measured at 450 nm using a microtiter plate reader. The cell viability-drug dilution profiles were obtained from sigma plots, and drug concentrations which inhibited growth by 50% were calculated from multiple runs. (IC50)

[4] = test system: NB7-C8 neuroblastoma tumor cells; test: neuroblastoma tumor growth on chick chorioallantoic membrane; type: in vivo; conditions: 100 picomoles ScA topically after 72 hours, harvested day 8; p<0.002; listed as ScA
Experimental: FIG. 31(A-F): Transgenic Tg(fli1:EGFP) zebrafish embryos in which GFP is expressed in endothelial cells were incubated without (A) or with increasing concentrations of ScA: 80 nM in FIG. 31(B), 160 nM in FIG. 31(C), 300 nM in FIG. 31(D) 1.6 μM in FIG. 31(E) or 3 μM in FIG. 31(F), and blood vessel morphology recorded by fluorescence microscopy. FIG. 31(G) Filter disks impregnated with 100 ng of bFGF were placed on the chorioallantoic membrane of eleven day old chicks to induce angiogenesis in the absence or presence of ScA, as shown. After 72 hours (h), disks were removed and the vascularity of the underlying chorioallantoic membrane determined by direct counting of branch points using a dissecting microscope. FIG. 31(H): NB7 neuroblastoma cells lacking caspase 8 (filled bar) or NB7-C8 cells reconstituted for caspase 8 expression (open bars) were seeded into ten day old chick chorioallantoic membranes to form tumors. After 72 hours, ScA was added topically to each growing tumor mass. Tumors were harvested and resected on day 8, and mass (wet weight) determined. Data shown is the mean±SD (N=8-12).
Tumors were then treated topically with 100 picomoles of ScA, and allowed to grow a further five days before being harvested.
Chick Chorioallantoic membrane studies. The CAM studies were performed using 10 day old chick embryos as we've previously described (36). […]

[5] = test system: NB7 caspase 8 positive cells; test: XTT cell proliferation assay; type: cell-based, human
Experimental: as §1, with “The suppression of caspase-8 was verified by western blot.” left out
Cytotoxicity Assay. Cytotoxicity of ScA was assessed using the XTT cell proliferation assay. […] The plates were then incubated under standard tissue culture conditions until the control wells (DMSO) reached an OD value between 1.0-1.5. as measured at 450 nm using a microtiter plate reader. The cell viability-drug dilution profiles were obtained from sigma plots, and drug concentrations which inhibited growth by 50% were calculated from multiple runs. […]

[6] = test system: HUVEC primary endothelial cells; test: 72 h XTT assay for Huvec cell proliferation; type: cell-based, human
Experimental: FIG. 2A illustrates a microtiter plate 72 hour (h) XTT assay for Huvec cell proliferation (2500 cells/well seeded), showing serial dilutions of structurally diverse marine natural compounds. […] FIG. 2B graphically illustrates the data for this study.
as §2

SMILES: C=CC/C=C/N(C)C(=O)CCCCCCCC/C=C/[C@H](CSSC[C@@H](/C=C/CCCCCCCCC(=O)N(C)/C=C/CC=C)NC(C)=O)NC(C)=O [somocystinamide A, Somocystinamide A]
- solubility [1]: limited solubility
- colocalization of ceramide and caspase 8 ([2]; 0.10 μM, 30 minutes or six hours): induced colocalization of ceramide and caspase 8
- cell surface ceramide ([2]; 300 nM, 30 minutes after treatment): accumulation, and aggregation, of cell surface ceramide
- IC50 ([3]; A549, anti-proliferative effect, FIG. 6): 46 nM
- IC50 ([3]; A549, percent cell viability, FIG. 16): 114 nM
- pro-apoptotic response induced by scA ([3]; lentivirus shRNA silencing of caspase 8 or caspase 3, FIG. 24): attenuate the pro-apoptotic response
- loss in sensitivity to ScA ([3]; shRNA knockdown of caspase 8, FIG. 28E): five-fold
- tumor growth / tumor mass (wet weight) [4]: significantly decreased; also recorded: inhibition of tumor growth selectively in the caspase 8-expressing tumor cells
- IC50 ([5]; Homo sapiens, anti-proliferative effect, FIG. 6): 12 nM
- sensitivity of the caspase 8 positive cells to ScA ([5]; relative to NB7 cells): 100 times
- cytotoxicity, concentration range ([6]; 72 h XTT, 2500 cells/well, FIG. 2): cytotoxicity in the nanomolar concentration range
- IC50 ([6]; Homo sapiens, HUVEC, anti-proliferative effect, FIG. 6, read-out: IC50): 0.004 nM
- IC50 ([6]; cultured endothelial cells, XTT 72 hours): picomolar range
